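Exposure lasted 48 hours, with cells grown in 96-well plates and compounds tested at five concentrations. At the GI50, growth is halved.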 Activity calls are given as the source filed them. No stated cut-off is given here; in the data, active = GI50 up to about 1.1 µM and inactive = higher.
Experiments:
Assay in all cases: growth of human tumour cells (NCI), 48 h
NCI-H460 = test system: NCI-H460
OVCAR-4 = test system: OVCAR-4
RPMI-8226 = test system: RPMI-8226
MOLT-4 = test system: MOLT-4
SK-OV-3 = test system: SK-OV-3
SR = test system: SR
IGROV-1 = test system: IGROV-1
HCC 2998 = test system: HCC 2998
786-0 = test system: 786-0
HT-29 = test system: HT-29
T47D = test system: T47D
UACC-62 = test system: UACC-62
OVCAR-3 = test system: OVCAR-3
UO-31 = test system: UO-31
CAKI-1 = test system: CAKI-1
ACHN = test system: ACHN
A498 = test system: A498
SW-620 = test system: SW-620
M14 = test system: M14
HOP-62 = test system: HOP-62

Row | SMILES | GI50 (NCI-H460) | GI50 (OVCAR-4) | GI50 (RPMI-8226) | GI50 (MOLT-4) | GI50 (SK-OV-3) | GI50 (SR) | GI50 (IGROV-1) | GI50 (HCC 2998) | GI50 (786-0) | GI50 (HT-29) | GI50 (T47D) | GI50 (UACC-62) | GI50 (OVCAR-3) | GI50 (UO-31) | GI50 (CAKI-1) | GI50 (ACHN) | GI50 (A498) | GI50 (SW-620) | GI50 (M14) | GI50 (HOP-62)
1 | CCOC(=O)/C(=C\c1ccccc1)C(=O)CCN1CCOCC1 | 14.4 µM (inactive) | 12.4 µM (inactive) | 2.07 µM (inactive) | 1.99 µM (inactive) | 23 µM (inactive) | 2.1 µM (inactive) | 15.2 µM (inactive) | 17.8 µM (inactive) | 7.78 µM (inactive) | 6.3 µM (inactive) | 16.3 µM (inactive) | 4.24 µM (inactive) | 7.41 µM (inactive) | 16.9 µM (inactive) | 4.49 µM (inactive) | 5.38 µM (inactive) | 16.7 µM (inactive) | 2.33 µM (inactive) | 6.67 µM (inactive) | 21 µM (inactive)
2 | Cc1c(C#N)c2nnn(-c3ccccc3)c(=O)n2c1-c1ccccc1 | 1.92 µM (inactive) | > 41.5 µM (inactive) | 1.24 µM (inactive) | 1.58 µM (inactive) | 1.41 µM (inactive) | 0.863 µM (active) | 1.48 µM (inactive) | 3.34 µM (inactive) | 1.67 µM (inactive) | – | 4.18 µM (inactive) | 4.79 µM (inactive) | 0.824 µM (active) | 5.75 µM (inactive) | 2.42 µM (inactive) | 8.97 µM (inactive) | 2.1 µM (inactive) | – | 0.959 µM (active) | 4.48 µM (inactive)
3 | CC(C)CCCC(C)[C@H]1CC[C@H]2NCCCC[C@]12C (stereo not given in full) | 2.02 µM (inactive) | 6.58 µM (inactive) | 1.92 µM (inactive) | 2.28 µM (inactive) | 14.3 µM (inactive) | 2.07 µM (inactive) | 6.19 µM (inactive) | 1.37 µM (inactive) | 3.78 µM (inactive) | 2.34 µM (inactive) | 2.77 µM (inactive) | 2.01 µM (inactive) | 11.9 µM (inactive) | 7.36 µM (inactive) | 7.05 µM (inactive) | 2.07 µM (inactive) | 9.84 µM (inactive) | 2.61 µM (inactive) | 2.1 µM (inactive) | 9.08 µM (inactive)
4 | Nc1ccccc1C(=O)CCC1C(=O)NC(=S)NC1=O | > 100 µM (inactive) | > 100 µM (inactive) | > 100 µM (inactive) | > 100 µM (inactive) | > 100 µM (inactive) | > 100 µM (inactive) | > 100 µM (inactive) | > 100 µM (inactive) | > 100 µM (inactive) | > 100 µM (inactive) | > 100 µM (inactive) | > 100 µM (inactive) | > 100 µM (inactive) | > 100 µM (inactive) | > 100 µM (inactive) | > 100 µM (inactive) | > 100 µM (inactive) | > 100 µM (inactive) | > 100 µM (inactive) | > 100 µM (inactive)
5 | S=C=NC1CCC(c2cc3ccccc3s2)(N2CCCCC2)CC1 (stereo not given) | 1.87 µM (inactive) | 1.87 µM (inactive) | 1.46 µM (inactive) | 0.127 µM (active) | 2.22 µM (inactive) | 0.071 µM (active) | – | 1.8 µM (inactive) | 1.78 µM (inactive) | 1.77 µM (inactive) | 2.99 µM (inactive) | 1.76 µM (inactive) | 2.09 µM (inactive) | 2.19 µM (inactive) | 1.88 µM (inactive) | 1.93 µM (inactive) | 2.26 µM (inactive) | 2.02 µM (inactive) | 1.86 µM (inactive) | 2.07 µM (inactive)
6 | COc1ccc(CSc2ccccc2Cn2cccc2)cc1OC | > 100 µM (inactive) | 39.8 µM (inactive) | 11.6 µM (inactive) | > 10 µM (inactive) | > 100 µM (inactive) | 50.5 µM (inactive) | > 100 µM (inactive) | 56.6 µM (inactive) | > 100 µM (inactive) | 99.8 µM (inactive) | 35.2 µM (inactive) | 71.6 µM (inactive) | 16 µM (inactive) | 39.4 µM (inactive) | 93.1 µM (inactive) | 10.4 µM (inactive) | 27.6 µM (inactive) | > 100 µM (inactive) | – | > 100 µM (inactive)
7 | O=C(Nc1cc(Cl)c(I)c(Cl)c1)C(F)(F)F | 27.1 µM (inactive) | 31.1 µM (inactive) | 31.1 µM (inactive) | 26.5 µM (inactive) | 31 µM (inactive) | 30.8 µM (inactive) | 27.2 µM (inactive) | 20 µM (inactive) | 29 µM (inactive) | 19.8 µM (inactive) | 25.8 µM (inactive) | 20.3 µM (inactive) | 24.9 µM (inactive) | 23.6 µM (inactive) | 19.9 µM (inactive) | 30.3 µM (inactive) | 22.9 µM (inactive) | 45.3 µM (inactive) | 23.2 µM (inactive) | 31.2 µM (inactive)
8 | COC(=O)Cc1ccc2c(c1)Sc1ccc(CC(=O)OC)cc1N2C | 33.1 µM (inactive) | 28.3 µM (inactive) | 39.1 µM (inactive) | 9.66 µM (inactive) | 38.3 µM (inactive) | 14.4 µM (inactive) | 45.8 µM (inactive) | 54 µM (inactive) | 25.5 µM (inactive) | 10.8 µM (inactive) | 32.2 µM (inactive) | 23.9 µM (inactive) | 23.3 µM (inactive) | 16.8 µM (inactive) | 11.6 µM (inactive) | 38 µM (inactive) | 40.6 µM (inactive) | 39.1 µM (inactive) | 30.3 µM (inactive) | 27.4 µM (inactive)
9 | COc1cc(C2c3cc4c(cc3OC(NNc3ccccc3)C2C)OCO4)cc(OC)c1OC (stereo not given) | 1.02 µM (active) | 4.94 µM (inactive) | 1.43 µM (inactive) | 1.09 µM (active) | 2.08 µM (inactive) | 0.673 µM (active) | 1.26 µM (inactive) | 0.953 µM (active) | 1.1 µM (active) | 0.986 µM (active) | 2.43 µM (inactive) | 0.544 µM (active) | 0.993 µM (active) | 0.91 µM (active) | 0.982 µM (active) | 0.631 µM (active) | 2.22 µM (inactive) | 1.4 µM (inactive) | 0.869 µM (active) | 0.923 µM (active)
10 | COC(=O)[C@H](Cc1c[nH]c2ccccc12)NC(=O)c1ccc(CNC(=O)/C=C/c2cccc(Oc3ccccc3)c2)cc1 | 83 µM (inactive) | 19.5 µM (inactive) | 62.4 µM (inactive) | 9.06 µM (inactive) | > 100 µM (inactive) | 22.4 µM (inactive) | > 100 µM (inactive) | 89.9 µM (inactive) | > 100 µM (inactive) | > 100 µM (inactive) | > 100 µM (inactive) | 36.1 µM (inactive) | > 100 µM (inactive) | > 100 µM (inactive) | > 100 µM (inactive) | > 100 µM (inactive) | > 100 µM (inactive) | > 100 µM (inactive) | 23.2 µM (inactive) | > 100 µM (inactive)
11 | O=C1Nc2cc([N+](=O)[O-])ccc2C(=O)N2CCC[C@@H]12 | > 100 µM (inactive) | > 100 µM (inactive) | > 100 µM (inactive) | > 100 µM (inactive) | > 100 µM (inactive) | > 100 µM (inactive) | > 100 µM (inactive) | > 100 µM (inactive) | > 100 µM (inactive) | > 100 µM (inactive) | > 100 µM (inactive) | > 100 µM (inactive) | > 100 µM (inactive) | > 100 µM (inactive) | > 100 µM (inactive) | > 100 µM (inactive) | > 100 µM (inactive) | > 100 µM (inactive) | > 100 µM (inactive) | > 100 µM (inactive)
12 | C1CCC2C(C1)CCCC2NC1=NCCO1 (stereo not given) | > 100 µM (inactive) | > 100 µM (inactive) | 92.5 µM (inactive) | > 100 µM (inactive) | > 100 µM (inactive) | 45 µM (inactive) | > 100 µM (inactive) | 72.9 µM (inactive) | > 100 µM (inactive) | 35.7 µM (inactive) | > 100 µM (inactive) | > 100 µM (inactive) | > 100 µM (inactive) | > 100 µM (inactive) | > 100 µM (inactive) | > 100 µM (inactive) | > 100 µM (inactive) | > 100 µM (inactive) | 40 µM (inactive) | > 100 µM (inactive)
13 | COC(=O)c1c(OC(C)=O)ccc2c1c1cc3ccccc3c(OC(C)=O)c1n2C | 10.4 µM (inactive) | 19.7 µM (inactive) | 8.63 µM (inactive) | 5.75 µM (inactive) | 6.65 µM (inactive) | 3.69 µM (inactive) | 2.73 µM (inactive) | 33.6 µM (inactive) | 11 µM (inactive) | 15.2 µM (inactive) | 4.69 µM (inactive) | 30.8 µM (inactive) | 23.9 µM (inactive) | 17.1 µM (inactive) | 11.8 µM (inactive) | 8.09 µM (inactive) | 13.7 µM (inactive) | – | 29.4 µM (inactive) | 50 µM (inactive)
14 | COc1ccc(C2c3cc4c(cc3OC3(OC)COC(=O)C23)OCO4)c(OC)c1 (stereo not given) | 7.14 µM (inactive) | 19.1 µM (inactive) | 3.56 µM (inactive) | 4.91 µM (inactive) | 15.9 µM (inactive) | 4.49 µM (inactive) | 10.5 µM (inactive) | 30 µM (inactive) | 11.3 µM (inactive) | 3.4 µM (inactive) | 29.4 µM (inactive) | 5.73 µM (inactive) | 4.72 µM (inactive) | 14.9 µM (inactive) | 7.43 µM (inactive) | 34.8 µM (inactive) | 39.5 µM (inactive) | 6.43 µM (inactive) | 3.73 µM (inactive) | 8.39 µM (inactive)
